Experimental data taken from article PMC7022715 (Pharmaceutics, 2019).

Legend:
[1] = oral, rats and mice, 12 months; cited from earlier work
[2] = In vivo pharmacokinetics after topical application to dorsal skin; conditions: male, Sprague-Dawley, rat, plasma, both hydrogel groups, rats, topical 25 mg/kg
Description: In vivo pharmacokinetic study of MTK-loaded nanocrystal preparation was carried out in the healthy rats, after approval from Institutional Animal Care and Use Committee (IACUC) of Dankook University (Cheonan, Korea) (DKU-19-032, 8th October 2019). Six-week-old male Sprague-Dawley rats (SD rats, 250 ± 20 g) obtained from Samtako (Kyungki-do, Korea) were acclimated for at least 3 days, with free access to tap water and standardized chow. The rats were then divided into two groups (n = 6 per each group) and the hair on the dorsal region was removed by hair clippers without damaging the skin, prior to topical application. […] During the experimental period (24 h), individual rats were monitored for their changes in skin and fur, behavior pattern, morbidity, and mortality. […] The drug concentration in the plasma was determined by the high-performance liquid chromatography and tandem mass spectrometry (LC–MS/MS) method described below.
Briefly, 20 μL of thawed rat plasma was mixed with 500 μL of the extraction solution (25% (v/v) of dichloromethane and 75% (v/v) of ethyl acetate), including zafirlukast (the internal standard, IS, 60 ng/mL) and vortexed for 60 s. […] Then, the residue was reconstituted with 100 μL of methanol and the final solution was analyzed through the LC-MS/MS system, composed of Nexera X2 UHPLC and LCMS-8050 mass spectrometer (Shimadzu, Tokyo, Japan). […]

[3] = design: method as in ref 11 (Al Omari et al. 2007); conditions: UV exposure for 15 min; ref 11 (Al Omari et al. 2007); cited from earlier work
[4] = format: in vivo; conditions: rats, 25 mg/kg topical, 24 h monitoring
Description: In vivo pharmacokinetic study of MTK-loaded nanocrystal preparation was carried out in the healthy rats, after approval from Institutional Animal Care and Use Committee (IACUC) of Dankook University (Cheonan, Korea) (DKU-19-032, 8th October 2019). Six-week-old male Sprague-Dawley rats (SD rats, 250 ± 20 g) obtained from Samtako (Kyungki-do, Korea) were acclimated for at least 3 days, with free access to tap water and standardized chow. The rats were then divided into two groups (n = 6 per each group) and the hair on the dorsal region was removed by hair clippers without damaging the skin, prior to topical application. […] To avoid the drying of the nanocrystal or conventional hydrogels, a thin film made from polyurethane and acrylamide (Tegaderm®, 10 × 12 cm) was attached onto the application site. At predetermined time intervals (0, 0.5, 1, 2, 3, 4, 5, 8, 12, and 24 h), the blood samples (about 0.2 mL) were withdrawn from the submandibular vein using 28 G heparinized syringe. At 6 h post-administration, rats were allowed to freely access to water and standardized chow. During the experimental period (24 h), individual rats were monitored for their changes in skin and fur, behavior pattern, morbidity, and mortality. […] The drug concentration in the plasma was determined by the high-performance liquid chromatography and tandem mass spectrometry (LC–MS/MS) method described below.

[5] = design: method as in ref 25 (Lai et al.); conditions: photo-stability; ref 25 (Lai et al.); cited from earlier work

| SMILES | NOAEL [1] [mg/kg] | concentration at 5 h ([2]; 5 h post-dosing) [ng/mL] | concentration at 12 h ([2]; 12 h post-dosing, read-out: drug concentration in the plasma) [ng/mL] | drug content in the methanolic solution [3] [%] | adverse effects following single topical administration [4] | half-life with nanosuspension as compared to drug methanolic solution [5] [fold] |
| --- | --- | --- | --- | --- | --- | --- |
| CC(C)(O)c1ccccc1CC[C@@H](SCC1(CC(=O)O)CC1)c1cccc(/C=C/c2ccc3ccc(Cl)cc3n2)c1 [MTK, Montelukast] | 50 | 2 to 6 | < 1 | 70 | no marked adverse effects | – |
| CC1=C(/C=C/C(C)=C/C=C/C(C)=C/C(=O)O)C(C)(C)CCC1 [tretinoin] | – | – | – | – | – | 7.5 |
